# Test results taken from ChEMBL document CHEMBL5512693, “Improved Rigidin-Inspired Antiproliferative Agents with Modifications on the 7-Deazahypoxanthine C7/C8 Ring Systems” (J Med Chem, 2024).
# The source made the active and inactive calls. No cut-off for these calls is given here.
# What was measured:
# HeLa [1] = experiment: Antiproliferative activity against human HeLa cells assessed as reduction in cell viability incubated for 48 hrs by MTT assay; format: functional
# Tubulin (Homo sapiens) [2] = target: T1, Tubulin (Homo sapiens) (UniProt P68371+Q9H4B7+P0DPH7+P68366+Q13509+Q71U36+P04350+Q3ZCM7+P07437+P68363+Q9BQE3+Q6PEY2+Q13885+Q9BVA1+Q9BUF5); experiment: Inhibition of microtubule (unknown origin) polymerization at 25 uM by fluorescence- based assay relative to control; format: protein-complex assay
# HeLa [3] = experiment: Antimitotic effect in human HeLa cells expressing EGFP-tubulin assessed as chromosome congression defect by measuring mitotic exit/cell death at 7.5 nM incubated for 4 hrs by immunolabelling based live-cell imaging/inverted microscopy; format: functional
# Tubulin (Homo sapiens) [4] = target: T1, Tubulin (Homo sapiens); experiment: Induction of microtubule organization changes in human Hela cells assessed as decrease in spindle length at GI50 concentration incubated for 4 hrs by inverted microscopy; format: cell-based
# [5] = Solubility of the compound by laser nephelometry; format: physicochemical
# HeLa [6] = experiment: Antimitotic effect in human HeLa cells expressing EGFP-tubulin assessed as chromosome congression defect by measuring correcting the syntelic attachment at 7.5 nM incubated for 4 hrs by live-cell imaging/inverted microscopy; format: functional, cell-based
# HeLa [7] = experiment: Antimitotic effect in human HeLa cells expressing EGFP-tubulin assessed as chromosome congression defect by measuring progressing through mitosis to prolonged pro-metaphase arrest at 7.5 nM incubated for 4 hrs by immunolabelling based live-cell imaging/inverted microscopy; format: functional
# [8] = Therapeutic index, ratio of GI50 for human PNT1A cells to GI50 for human HeLa cells; format: toxicity; settings: PNT1A cells and HeLa cells, read-out: TI
# HeLa [9] = experiment: Induction of apoptosis in human HeLa cells assessed as total number of cells died at 20 uM measured upto 30 hrs by Annexin V labelling method relative to control; format: functional
Structure (SMILES),inhibition (Tubulin (Homo sapiens) [2]) [%],Activity (Tubulin (Homo sapiens) [4]),solubility kinetic [5] [µM],selectivity ratio [8],further results
C#CCCCc1nc(=O)c2c(-c3cccc(Br)n3)c(C(=O)c3ccc(OCCOCC)cc3)[nH]c2[nH]1,–,–,–,–,GI50 (HeLa [1]): 0.0224 µM
C#CCCCc1nc(=O)c2c(-c3ccccc3)c(C(=O)c3ccccc3)[nH]c2[nH]1,100,–,–,–,–
C#CCCCc1nc(=O)c2c(-c3ccccc3)c(C(=O)c3ccc(OCCOCC)cc3)[nH]c2[nH]1,100,Active,14,2,Activity (HeLa [3]): Active; Activity (HeLa [6]): Active; Activity (HeLa [7]): Active
C#CCCCc1nc(=O)c2c(-c3ccccc3)c(C(=O)c3ccc(OCCN4CCCC4)cc3)[nH]c2[nH]1,–,–,–,–,solubility [5]: Soluble
C#CCCCc1nc(=O)c2c(-c3cc(F)cc(F)c3)c(C(=O)c3ccc(OCCOCC)cc3)[nH]c2[nH]1,–,Active,14,–,Activity (HeLa [9]): 85%
C#CCCCc1nc(=O)c2c(-c3ccccc3)c(C(=O)c3ccc(OCCN4CCOCC4)cc3)[nH]c2[nH]1,100,Active,–,–,solubility [5]: Soluble
C#CCCCc1nc(=O)c2c(-c3ccccc3)c(C(=O)c3ccc(N4CCOCC4)cc3)[nH]c2[nH]1,–,–,–,2,–
C#CCCCc1nc(=O)c2c(-c3cccc(F)c3)c(C(=O)c3ccc(OCCOCC)cc3)[nH]c2[nH]1,100,Active,14,2,Activity (HeLa [9]): 87%; GI50 (HeLa [1]): 0.016 µM
